The text below walks through data of US6576780B1, “Hydroxyamidino derivatives useful as nitric oxide synthase inhibitors” (GD Searle & Company, priority 1996, dated 2003).

Structures can show the parent of a compound that is named as a salt.

Assay [1] has as its target recombinant human inducible NOS (hiNOS) (Homo sapiens, UniProt P35228). As to the kind of experiment: Human in vitro enzyme data, hiNOS. In kind it is biochemical.
Assay [2] concerns the target T1, rat brain constitutive NOS (rnNOS) (Rattus norvegicus, UniProt P29476).
T1 construct: was prepared from an extract of rat cerebellum; from tissue; host or cells: rat cerebellum
As to the kind of experiment: Citrulline assay for nitric oxide synthase, rnNOS. The class given is biochemical. The settings on record: partially purified enzyme from rat cerebellum. The procedure:
(§1) NOS activity was measured by monitoring the conversion of L-[2,3-^3H]-arginine to L-[2,3- H]-citrulline. Mouse inducible NOS (miNOS) was prepared from an extract of LPS-treated mouse RAW 264.7 cells and rat brain constitutive NOS (rnNOS) was prepared from an extract of rat cerebellum. Both preparations were partially purified by DEAE-Sepharose chromatography. Enzyme (10 μL) was added to 40 μL of 50 mM Tris (pH 7.6) and the reaction initiated by the addition of 50 μL of a solution containing 50 mM Tris (pH 7.6), 2.0 mg/mL bovine serum albumin, 2.0 mM DTT, 4.0 mM CaCl2, 20 μM FAD, 100 &M tetrahydrobiopterin, 2.0 mM NADPH and 60 μM L-arginine containing 0.9 μCi of L-[2,3-^3H]-arginine. For constitutive NOS, calmodulin was included at a final concentration of 40 nM. Following incubation at 37° C. for 15 minutes, the reaction was terminated by addition of 300 μL cold buffer containing 10 mM EGTA, 100 mM HEPES (pH 5.5) and 1.0 mM L-citrulline. The [^3H]-citrulline was separated by chromatography on Dowex 50W X-8 cation exchange resin and radioactivity quantified with a liquid scintillation counter.

In assay [3] the target is T2, mouse inducible NOS (miNOS) (Mus musculus, UniProt P29477).
T2 construct: prepared from an extract of LPS-treated mouse RAW 264.7 cells; endogenous in cells; host or cells: LPS-treated mouse RAW 264.7 cells
Briefly: Citrulline assay for nitric oxide synthase, miNOS. The class given is biochemical. The note with it: partially purified enzyme from LPS-treated RAW 264.7 cells. Here is the method:
as §1

Assay [4] has as its system RAW 264.7 cells. As to the kind of experiment: Raw cell nitrite assay. In kind it is cell-based. The settings on record: Mus musculus, RAW264.7, cultured RAW 264.7 cells, LPS-induced. The procedure: RAW 264.7 cells are plated to confluency on a 96-well tissue culture plate grown overnight (17 h) in the presence of LPS to induce NOS. A row of 3-6 wells were left untreated and served as controls for subtraction of nonspecific background. The media was removed from each well and the cells are washed twice with Kreb-Ringers-Hepes (25 mM, pH 7.4) with 2 mg/ml glucose. The cells are then placed on ice and incubated with […] of buffer containing L-arginine (30 mM) +/− inhibitors for 1 h. The assay is initiated by warming the plate to 37° C. in a water bath for 1 h. Production of nitrite by intracellular iNOS is linear with time. To terminate the cellular assay, the plate of cells is placed on ice and the nitrite-containing buffer removed and analyzed for nitrite using a previously published fluorescent determination for nitrite. T. P. Misko et al, Analytical Biochemistry, 214, 11-16 (1993). All values are the average of triplicate wells and are compared to a background-subtracted induced set of cells (100% value).

The target of assay [5] is recombinant human neuronal constitutive NOS (hncNOS) (Homo sapiens, UniProt P29475). As to the kind of experiment: Human in vitro enzyme data, hncNOS. In kind it is biochemical.
Assay [6] deals with recombinant human endothelial constitutive NOS (hecNOS) (Homo sapiens, UniProt P29474). Briefly: Human in vitro enzyme data, hecNOS. In kind it is biochemical.
For assay [7], the system named is plasma nitrites induced by endotoxin (LPS). As to the kind of experiment: In vivo low-endotoxin (Low Dose LPS) assay. The note with it: rats, LPS i.p., plasma nitrites 5 hours post-treatment. Also noted: species or system rat. Here is the method:
Rats were treated with an intraperitoneal injection of 10 mg/kg of endotoxin (LPS) with or without oral administration of the nitric oxide synthase inhibitors. Plasma nitrites were measured 5 hours post-treatment.

In the case of `C/C(=N\O)NCCCC[C@H](N)C(=O)O` [Example 1, N^6-[1-(Hydroxyimino)ethyl]-L-lysine, Dihydrochloride], the 50% inhibitory concentration (IC50) came to 154 µM in assay [1]; 1470 µM in assay [2]; 77 µM in assay [3]; 28 µM in assay [4]; 907 µM in assay [5]; 1470 µM in assay [6]. For the same compound, the “Inhibition of LPS-induced plasma nitrite” value in assay [7] (0.1 mg/kg/day p.o.) was 0% inh; in assay [7] (1 mg/kg/day p.o.) it was 54% inh; in assay [7] (10 mg/kg/day p.o.), 97% inh.
